Laboratory results as given in paper PMC6874530, “Structural analysis identifies an escape route from the adverse lipogenic effects of liver X receptor ligands” (Communications Biology, 2019).
Where two headings read alike, the source gives them in different places.

Experiments:
[1] = molecular target: T1, LXRα (Homo sapiens, UniProt Q13133); test: Gal4 one hybrid reporter gene (transactivation) assay in U2OS cells, LXRα; assay type: cell-based; conditions: for EC50: U2OS cells, Gal4-LXRα LBD, read-out: LXRα transactivation pEC50 (converted); for Emax: U2OS, 40 h, read-out: LXRα transactivation Agonist efficacy, %
T1 construct: expression vectors pSG5-Gal4-LXRα LBD or pSG5-Gal4-LXRβ LBD; expressed in transfected cells; host or cells: U2OS osteosarcoma cells
T1 sequence (Q13133 209-447 limits assumed): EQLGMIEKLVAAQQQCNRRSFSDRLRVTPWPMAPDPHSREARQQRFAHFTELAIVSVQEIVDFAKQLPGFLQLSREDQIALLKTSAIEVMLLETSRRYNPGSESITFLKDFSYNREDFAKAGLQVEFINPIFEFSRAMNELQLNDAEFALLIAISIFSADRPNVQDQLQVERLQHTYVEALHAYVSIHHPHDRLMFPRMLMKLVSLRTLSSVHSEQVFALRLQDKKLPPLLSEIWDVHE
Procedure: Transactivation assays were performed in U2OS osteosarcoma cells (ATCC, USA). […] Ligands were added at ten different concentrations 2 h post transfection and the luciferase activity was measured after 40 h.

[2] = molecular target: T2, LXRβ LBD (Homo sapiens, UniProt P55055); test: biochemical
T2 sequence (P55055 215-460 limits assumed): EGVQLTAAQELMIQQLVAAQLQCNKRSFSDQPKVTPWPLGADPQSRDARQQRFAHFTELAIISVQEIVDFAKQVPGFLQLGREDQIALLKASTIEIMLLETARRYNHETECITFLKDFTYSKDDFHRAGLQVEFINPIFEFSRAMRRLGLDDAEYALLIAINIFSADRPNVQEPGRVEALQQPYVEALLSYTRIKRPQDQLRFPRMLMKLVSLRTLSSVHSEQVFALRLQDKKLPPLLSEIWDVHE
Description: (§4) The compounds were run in triplicate (binding assay) or in quadruplicate (transactivation assay). Standard deviations are indicated for individual experiments run more than once.

[3] = molecular target: T3, LXRα LBD (Homo sapiens, UniProt Q13133); test: biochemical
T3 sequence (Q13133 200-447): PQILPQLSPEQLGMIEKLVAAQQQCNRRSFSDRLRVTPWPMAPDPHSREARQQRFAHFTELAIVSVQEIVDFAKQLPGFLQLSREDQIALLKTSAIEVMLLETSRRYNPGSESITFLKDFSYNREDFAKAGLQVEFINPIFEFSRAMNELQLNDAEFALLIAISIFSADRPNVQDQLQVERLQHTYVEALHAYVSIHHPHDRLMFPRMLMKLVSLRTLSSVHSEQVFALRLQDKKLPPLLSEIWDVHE
Description: as §4

[4] = molecular target: T2, LXRβ LBD; test: differential HDX-MS of LXRβ LBD (apo vs ligand-bound); set-up: human his-tagged LXRβ LBD (216-461); His tag; made in house; host or cells: Escherichia coli BL21(DE3); conditions: after 30 s of deuterium exchange
Procedure: (§1) Prior to the deuterium incorporation experiments, 10 µM apo LXR was incubated with 10× excess of ligand or equal volume of DMSO for 30 min at room temperature. In the experiments with cofactors, 15× excess of the SRC1 coactivator peptide and the NCOR1 corepressor peptide were added to the ligand-bound or apo proteins, respectively, and incubated for 30 min at room temperature. […] A fully deuterated sample was generated by incubating protein with 4 M guanidine-HCl in D2O for 30 min at 45 °C. Exchange reactions were performed with a CTC PAL sample handling robot (LEAP Technologies). Labeling times were 30, 60, 180, 600, and 1800 s in the kinetics experiments. Differential HDX of a complete compound selection was measured after 30 and 600 s of labeling time points. Reactions were conducted by incubating 4 µl of LXR with 50 µl of D2O buffer (containing 25 mM Tris-HCl (pD 7.6), 50 mM NaCl, 10% glycerol, and 1 mM TCEP). The exchange reaction was stopped by the addition of 50 µl of quench solution (3 M urea, 0.1% TFA) followed by immediate injection into a Enzymate BEH Pepsin 2.1 × 30 mm Column (Waters, UK) for protein digestion (2 min at 24 °C). Peptic digest was further injected on a Waters nanoACQUITY UPLC System where peptides were first desalted by trapping for 3 min on a VanGuard Pre-Column Acquity UPLC BEH C18 (1.7 μm; 2.1 × 5 mm), and then eluted over a 6-min 5–40% (vol/vol) acetonitrile (containing 0.1% formic acid) gradient into a Waters Synapt G2-Si mass spectrometer. Peptide separation was conducted at 0.1 °C. All exchange reactions were performed in triplicates.
(§2) Peptides from three samples of non-deuterated LXR were identified by using the ProteinLynx Global Server (PLGS Waters, UK). Peptides with an intensity of over 5000, a mass error < 5 ppm, and present in at least two of the three data acquisitions were pooled and imported into the DynamX data analysis software (Waters, UK). After a first round of automated spectral processing by using DynamX, each peptide was inspected manually for suitability for further analysis.
(§3) For pairwise comparison, MEMHDX software was used to identify statistically significant changes of deuterium uptake. For all peptides, a value of relative exchange per amino acid was corrected to back exchange. The mean deuteration level per amino acid was calculated by using Matlab (Mathworks)[69] and subsequently mapped onto the crystal structures with PyMOL (Schrodinger LLC). For structural representation, loop modeling with MOE (Chemical Computing Group Inc.) was applied on 2ACL.pdb file for LXRα LBD, and 1PQC.pdb for LXRβ LBD.

[5] = molecular target: T3, LXRα LBD; test: differential HDX-MS of LXRα LBD (apo vs ligand-bound); set-up: Human his-tagged LXRα LBD (200-447); His tag; made in house; host or cells: Escherichia coli BL21(DE3); conditions: for stabilization of LXRα H12: HDX-MS; for protection of LXRα H3 from deuterium exchange: after 600 s of deuterium exchange
Procedure: as §1, §2, §3

[6] = tested on: LXR KO macrophages; test: LXR target gene expression in LXR KO macrophages; assay type: cell-based; conditions: reply to reviewers
[7] = tested on: plasma triglycerides; set-up: method as in van der Hoorn et al. 2011; conditions: AZ876 high dose 20 µmol·kg−1·day−1, GW3965 at a similar dose; ref van der Hoorn et al. 2011; cited from earlier work
[8] = maximal activation compared with a reference full agonist, value (SD, n)
[9] = Receptor-binding affinity pKi LXRβ, value (SD, n independent experiments)
[10] = binding affinity to the LXRβ LBD
[11] = Receptor-binding affinity pKi LXRα, value (SD, n independent experiments)

| SMILES | EC50 ([1]; value (SD, n)) | Emax [1, 8] | Ki [2, 9] | Ki [3, 11] | protection of LXRβ H11–H12 from deuterium exchange [4] | protection of LXRα H3 from deuterium exchange [5] | other results |
| --- | --- | --- | --- | --- | --- | --- | --- |
| CN(C)C(=O)c1cccc(CCCCNC2=C(c3ccccc3)S(=O)(=O)N(C(C)(C)C)C2=O)c1 [AZ1] | 110 nM | 102% | 2.51 nM | 91.2 nM |  |  | Ki [2, 10]: 2 nM |
| CC(CCCc1cccc(S(N)(=O)=O)n1)NC1=C(c2ccccc2)S(=O)(=O)N(C(C)C)C1=O (stereo not drawn) [AZ2] | 77.6 nM | 111% | 3.72 nM | 91.2 nM |  |  |  |
| CC(C)N1C(=O)C(NCCCCc2cccc(S(N)(=O)=O)n2)=C(c2ccccc2)S1(=O)=O [AZ3] | 813 nM | 142% | 17.4 nM | 501 nM | 17-25% |  | Ki [2, 10]: 4 nM |
| CC(C)(C)N1C(=O)C(NC2CCN(c3ncc(CC(=O)O)cc3Cl)CC2)=C(c2ccccc2)S1(=O)=O [AZ4] | 427 nM | 103% | 33.1 nM | 355 nM |  |  |  |
| CN(C)C(=O)c1cnc(N2CC[C@@H](CNC3=C(c4ccccc4)S(=O)(=O)N(C(C)(C)C)C3=O)C2)c(Cl)c1 [AZ5] | 1070 nM | 60.5% | 77.6 nM | 2140 nM |  | no effect | stabilization of LXRα H12 [5]: did not stabilize LXRα H12 |
| CC(C)N1C(=O)C(NC2CCN(c3ncc(CC(=O)O)cc3Cl)CC2)=C(c2ccccc2)S1(=O)=O [AZ6] | 1230 nM | 87.8% | 162 nM | 1580 nM | 17-25% |  |  |
| CC(C)(C)N1C(=O)C(Cc2ccccc2)=C(NC2CCN(c3ncc(CC(=O)O)cc3Cl)CC2)C1=O [AZ7] | 1100 nM | 85.3% | 105 nM | 1070 nM |  |  | Ki ([3]; binding affinity to LXRα): 1000 nM |
| O=C1C(Cc2ccccc2)=C(NCCCCc2ccccc2)C(=O)N1Cc1ccccc1 [AZ8] | 1740 nM | 91.5% | 47.9 nM | 195 nM | 17-25% | no effect |  |
| CC(C)(O)c1cn(-c2ccc(-c3cc(F)c(CO)c(S(C)(=O)=O)c3)cc2F)c(C(C)(C)c2c(Cl)cccc2Cl)n1 [BMS-852927] |  |  | 2.63 nM |  |  | 60% | stabilization of LXRα H12 [5]: did not stabilize LXRα H12; agonist activity in the Gal4 reporter gene assay, LXRα [1]: No signal was observed; Ki [2, 10]: 3 nM; LXR target gene expression in LXR KO macrophages [6]: does not induce LXR |
| O=C(O)Cc1ccc(CNC(=O)[C@@H]2Cc3ccccc3N2S(=O)(=O)c2ccc(-c3ccccc3C(F)(F)F)cc2)cc1 [F1, reference compound] | 562 nM | 84% | 36.3 nM | 10.2 nM |  |  | stabilization of LXRα H12 [5]: did not stabilize LXRα H12; Potency-based LXRα selectivity over LXRβ ([1]; Gal4 reporter gene assays): 7 fold; Ki ([3]; binding affinity to LXRα): 10 nM |
| O=C(O)Cc1cccc(OCCCN(Cc2cccc(C(F)(F)F)c2Cl)CC(c2ccccc2)c2ccccc2)c1 [GW3965, reference compound] | 1100 nM | 93.5% | 24 nM | 158 nM |  |  | increase of plasma triglyceride levels [7]: 70% |
| Fc1ccc(-c2c3cccc(C(F)(F)F)c3nn2Cc2ccc(F)cc2Cl)cc1 [LXR-623, reference compound] | 2570 nM | 102% |  |  |  | no effect | Ki [2]: 95.5 nM; Ki [3]: 490 nM |
| O=S(=O)(c1ccccc1)N(CC(F)(F)F)c1ccc(C(O)(C(F)(F)F)C(F)(F)F)cc1 [T0901317, reference compound] |  |  |  |  | 17-25% |  | LXRα transactivation Agonist efficacy, % [1, 8]: 100.8 (7.4, n = 4) % |
